From article PMC6548547 (Journal of medicinal chemistry, 2018)
Entries after “also recorded” stand apart in the source; their conditions may differ. Read-outs that look alike come from different tables or passages of the source.

Legend:
fibroblasts = format: cell-based
Ebola VLP = format: cell-based, Ebola virus
recombinant cathepsin L = recombinant cathepsin L (Homo sapiens, UniProt P07711); experiment: Cathepsin L assay; format: biochemical; conditions: 10 μM and dose-response
recombinant cathepsin B = recombinant cathepsin B (Homo sapiens, UniProt P07858); experiment: Cathepsin B assay; format: biochemical; conditions: 10 μM and dose-response
NPC1 protein = format: cell-based
EBOV = conditions: cited from earlier work
[1] = read-out: IC50 of previously reported EBOV inhibitors in vitro

Chain of recombinant cathepsin L (P07711 114-333): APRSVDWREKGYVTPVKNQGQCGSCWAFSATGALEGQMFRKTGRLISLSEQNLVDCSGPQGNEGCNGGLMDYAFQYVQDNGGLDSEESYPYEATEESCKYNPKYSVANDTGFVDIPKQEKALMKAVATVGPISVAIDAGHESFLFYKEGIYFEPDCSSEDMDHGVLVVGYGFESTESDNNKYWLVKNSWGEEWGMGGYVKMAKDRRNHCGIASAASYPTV

For `COc1cc2nc(N3CCCN(C)CC3)nc(NC3CCN(Cc4ccccc4)CC3)c2cc1OC` [BIX-01294], the “LysoTracker staining (enlargement of lysosome size)” value (“LysoTracker staining” below) (fibroblasts) was “increased LysoTracker staining” and the Potency (Ebola VLP) was “nanomolar range; also recorded: sub-micromolar”.

In the case of `COc1cc2c(Oc3ccc4[nH]c(C)cc4c3F)ncnc2cc1OCCCN1CCCC1` [Cediranib], the “LysoTracker staining” value (fibroblasts) is reported as “increased LysoTracker staining”.

With `CN1[C@@H]2CC[C@H]1C[C@@H](OC1c3ccccc3CCc3ccccc31)C2` [Deptropine] the “Inhibition of enzymatic activity of cathepsin L” value (recombinant cathepsin L) was “inhibited; also recorded: blocking cathepsin L activity” and the “LysoTracker staining” value (fibroblasts) was “increased LysoTracker staining”.

For `CC(C)(C)c1ccc(C(=O)CCCN2CCC(OC(c3ccccc3)c3ccccc3)CC2)cc1` [Ebastine], the “LysoTracker staining” value (fibroblasts) was “increased LysoTracker staining”.

For `CN(C)c1ccccc1CN1CCCN(Cc2ccccc2N(C)C)C1c1ccncc1` [GANT61], the “Inhibition of enzymatic activity of cathepsin L” value (recombinant cathepsin L) was “inhibited”, the “Inhibition of enzymatic activity of cathepsin B” value (recombinant cathepsin B) was “inhibited” and the “LysoTracker staining” value (fibroblasts) was “increased LysoTracker staining; also recorded: caused enlargement of lysosomes”.

With `CC(=O)N(C)C1(c2ccccc2)CCN(CCC[C@]2(c3ccc(Cl)c(Cl)c3)CCCN(C(=O)c3ccccc3)C2)CC1` [Osanetant] the “LysoTracker staining” value (fibroblasts) was “increased LysoTracker staining; also recorded: induces the enlargement of lysosomes”.

For `COc1ccc2cc1Oc1ccc(cc1)C[C@H]1c3cc(c(OC)cc3CCN1C)Oc1c(OC)c(OC)cc3c1[C@H](C2)N(C)CC3` [Tetrandrine], the “LysoTracker staining” value (fibroblasts) was “increased LysoTracker staining”.

In the case of `CCN(CC)CCO[C@H]1CC[C@@]2(C)C(=CC[C@@H]3[C@@H]2CC[C@]2(C)C(=O)CC[C@@H]32)C1.Cl` [U18666A, 3-β-(2-[diethylamino]ethoxy)-androst-5-en-17-one, monohydrochloride], the “Cholesterol accumulation (filipin staining), impairment of NPC1 protein function” value (NPC1 protein) is reported as “increased filipin staining” and the “LysoTracker staining” value (fibroblasts) is reported as “increased LysoTracker staining”.

In the case of `CC[C@]1(O)C[C@@H]2CN(CCc3c([nH]c4ccccc34)[C@@](C(=O)OC)(c3cc4c(cc3OC)N(C)[C@H]3[C@@](O)(C(=O)OC)[C@H](OC(C)=O)[C@]5(CC)C=CCN6CC[C@]43[C@@H]65)C2)C1` [Vinblastine], the IC50 (EBOV; read-out: Published Compound (IC50)) is listed as 48 nM.

In the case of `CC[C@]1(O)C[C@@H]2CN(CCc3c([nH]c4ccccc34)[C@@](C(=O)OC)(c3cc4c(cc3OC)N(C)[C@H]3[C@@](O)(C(N)=O)[C@H](O)[C@]5(CC)C=CCN6CC[C@]43[C@@H]65)C2)C1` [Vindesine], the Potency (Ebola VLP) is reported as “nanomolar range”.

For `Cc1ccc(CN2CCCN(C)C3(CCN(C)CC3)C2)cc1C` [ZINC67869167], the “LysoTracker staining” value (fibroblasts) was “increased LysoTracker staining; also recorded: induced enlargement of lysosomes”.

In the case of `Cc1[nH]c2c(CN3CC(CO)C(CN4CCCC4)C3)cccc2c1C` (centres unmarked) [ZINC91973695], the “LysoTracker staining” value (fibroblasts) is reported as “increased LysoTracker staining; also recorded: induced enlargement of lysosomes”.

For `Cc1cn(-c2cc(NC(=O)c3ccc(C)c(Nc4nccc(-c5cccnc5)n4)c3)cc(C(F)(F)F)c2)cn1` [nilotinib], the IC50 (EBOV; [1]) is given as 24300 nM.

In the case of `COC(=O)Nc1nc2ccc(C(=O)c3cccs3)cc2[nH]1` [nocodazole], the “IC50 of previously reported EBOV inhibitors in vitro” value (EBOV) is given as “sub-micromolar”.

In the case of `CCN(CC)CCNC(=O)c1c(C)[nH]c(/C=C2\C(=O)Nc3ccc(F)cc32)c1C` [sunitinib], the IC50 (EBOV; [1]) is given as 1910 nM.
